Article PMC7044277 (Nature Communications, 2020)
Several values for one entry are separate records, joined by “and”; a condition that tells them apart may be missing. Equal entries are not always repeated.

What was measured:
[1] = molecular target: T1, DRD4 (D4.4 variant) wild-type (Homo sapiens, UniProt P21917); experiment: Radioligand competition binding, [3H]-N-methylspiperone; details: DRD4; [3H]-methylspiperone (0.8-1.0 nM); read-out: Ki
T1 sequence (P21917 1-419): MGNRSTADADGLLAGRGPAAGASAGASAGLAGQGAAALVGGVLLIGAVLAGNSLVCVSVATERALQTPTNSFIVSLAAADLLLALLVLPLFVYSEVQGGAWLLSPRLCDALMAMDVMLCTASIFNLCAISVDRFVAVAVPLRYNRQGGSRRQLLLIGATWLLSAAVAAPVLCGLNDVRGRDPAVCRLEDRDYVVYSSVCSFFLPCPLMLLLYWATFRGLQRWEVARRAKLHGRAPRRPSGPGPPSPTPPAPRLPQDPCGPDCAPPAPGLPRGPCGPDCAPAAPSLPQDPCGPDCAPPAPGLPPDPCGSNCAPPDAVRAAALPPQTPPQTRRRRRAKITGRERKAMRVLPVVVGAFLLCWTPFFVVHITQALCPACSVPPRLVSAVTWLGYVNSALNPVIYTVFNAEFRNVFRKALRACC

DRD4 (D4.4 variant) [2] = molecular target: T2, DRD4 (D4.4 variant) (Homo sapiens, UniProt P21917); experiment: Gαi/o-mediated cAMP inhibition (GloSensor); assay type: cell-based; details: DRD4; agonist, cAMP inhibition; read-out: EC50 ± SEM
T2 sequence (P21917 1-419): T1 sequence (P21917 1-419)

DRD3 = DRD3 (Homo sapiens, UniProt P35462); experiment: β-arrestin2 recruitment (Tango); assay type: cell-based; details: DRD3, Tango
DRD3 wild-type = DRD3 wild-type (Homo sapiens, UniProt P35462); experiment: Radioligand competition binding, [3H]-N-methylspiperone
DRD4 (D4.4 variant) [3] = molecular target: T2, DRD4 (D4.4 variant); experiment: β-arrestin2 recruitment (Tango); assay type: cell-based; details: DRD4; Tango; read-out: EC50 ± SEM
[4] = molecular target: DRD2 (D2 long receptor) wild-type (Homo sapiens, UniProt P14416); experiment: Radioligand competition binding, [3H]-N-methylspiperone, HEK293T membranes
DRD2 (D2 long receptor) [5] = molecular target: T3, DRD2 (D2 long receptor) (Homo sapiens, UniProt P14416); experiment: β-arrestin2 recruitment (Tango), HTLA cells; assay type: cell-based; details: for Response, Fig_S11c dose-response: individual replicates
DRD2 F1103.28A = DRD2 F1103.28A (Homo sapiens, UniProt P14416, F110A); assay type: binding; parameters: expressed in transfected cells; host or cells: HEK293T (ATCC CRL-11268); details: DRD2 F1103.28A
DRD2 (D2 long receptor) [6] = molecular target: T3, DRD2 (D2 long receptor); experiment: Gαi/o-mediated cAMP inhibition (GloSensor split-luciferase cAMP reporter), HEK293T; assay type: cell-based; details: for Response, Fig_S11b dose-response: individual replicates;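 on all read-outs here: compounds applied 15 min at room temperature, then luciferin plus 400 nM isoproterenol to raise cAMP through endogenous β2-adrenergic receptors, luminescence read 15 min later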

T3 sequence (P14416 whole entry): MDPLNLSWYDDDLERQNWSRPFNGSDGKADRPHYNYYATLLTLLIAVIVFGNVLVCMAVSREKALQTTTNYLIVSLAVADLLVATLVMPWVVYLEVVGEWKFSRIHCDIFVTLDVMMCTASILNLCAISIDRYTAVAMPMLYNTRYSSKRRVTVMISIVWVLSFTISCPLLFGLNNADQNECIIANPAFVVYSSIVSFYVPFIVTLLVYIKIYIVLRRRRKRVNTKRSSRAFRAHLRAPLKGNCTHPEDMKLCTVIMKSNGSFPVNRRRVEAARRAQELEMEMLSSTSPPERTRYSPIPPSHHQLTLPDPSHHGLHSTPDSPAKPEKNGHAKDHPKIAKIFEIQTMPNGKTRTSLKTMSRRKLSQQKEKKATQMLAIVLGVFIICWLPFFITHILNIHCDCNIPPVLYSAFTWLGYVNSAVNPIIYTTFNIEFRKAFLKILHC
Sequence of DRD3 (P35462 whole entry): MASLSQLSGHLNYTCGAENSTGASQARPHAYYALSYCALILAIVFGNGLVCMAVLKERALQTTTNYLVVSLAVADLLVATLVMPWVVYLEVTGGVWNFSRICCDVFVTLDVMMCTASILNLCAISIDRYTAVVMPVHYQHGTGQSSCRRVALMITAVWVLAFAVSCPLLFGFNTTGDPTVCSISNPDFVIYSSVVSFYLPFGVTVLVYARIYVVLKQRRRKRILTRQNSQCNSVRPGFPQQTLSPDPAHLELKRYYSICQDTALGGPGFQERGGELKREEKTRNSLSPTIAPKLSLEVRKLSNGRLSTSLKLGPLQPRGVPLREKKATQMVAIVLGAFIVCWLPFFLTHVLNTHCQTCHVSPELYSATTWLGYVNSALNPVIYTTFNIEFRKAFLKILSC
Sequence of DRD3 wild-type (P35462 whole entry): as above
Sequence of DRD2 F1103.28A (P14416 whole entry F110A): as the sequence (P14416 whole entry) above, with F110A counted along it
Sequence of DRD2 (D2 long receptor) wild-type (P14416 whole entry): as the sequence (P14416 whole entry) above

- Ki [1]: > 10 µM
- EC50 (DRD4 (D4.4 variant) [2]): > 10 µM
- Emax relative to quinpirole response (DRD3): 80.01%
- EC50 (DRD3; read-out: EC50 ± SEM): 5.48 ± 3.94 µM
- Ki (DRD3 wild-type; DRD3, [3H]-methylspiperone (0.8-1.0 nM), read-out: Ki): 1.07 µM
- pKi ± SEM (DRD3 wild-type; DRD3 wild-type): 5.97±0.13
- EC50 (DRD4 (D4.4 variant) [3]): > 10 µM
- Ki ([4]; DRD2, [3H]-methylspiperone (0.8-1.0 nM), read-out: Ki): 4.78 µM
- pKi ± SEM ([4]; DRD2 wild-type): 5.32±0.22
- Emax relative to quinpirole response (DRD2 (D2 long receptor) [5]; DRD2, Tango): 109.80%
- EC50 (DRD2 (D2 long receptor) [5]; DRD2, β-arrestin2 recruitment (Tango), read-out: EC50 ± SEM): 0.166 ± 0.0764 µM
- Response, Fig_S11c dose-response (DRD2 (D2 long receptor) [5]; Log[Drug] -6.52): 92.1418 and 88.9307
- pKi ± SEM (DRD2 F1103.28A): 5.49±0.16
- Ki (DRD2 F1103.28A; read-out: Ki): 3.24 µM
- EC50 (DRD2 (D2 long receptor) [6]; DRD2, agonist, Gαi/o-mediated cAMP inhibition, read-out: EC50 ± SEM): 0.00538 ± 0.00115 µM
- Emax relative to quinpirole response (DRD2 (D2 long receptor) [6]; DRD2, cAMP inhibition): 91.62%
- Response, Fig_S11b dose-response (DRD2 (D2 long receptor) [6]; Log[Drug] -10.52): -0.1987 and -7.8123
- Response, Fig_S11b dose-response (DRD2 (D2 long receptor) [6]; Log[Drug] -11): 6.197 and 12.6784 and -7.6785 and 0.5663
- Response, Fig_S11b dose-response (DRD2 (D2 long receptor) [6]; Log[Drug] -11.52): -9.1412 and 3.4 and -7.0575 and 6.319
SMILES: COc1cccc2cc(C(C)NCC3(O)CCCCC3)oc12.Cl (centres unmarked) [O3LE6]
- response, Fig_S11c dose-response source data (DRD2 (D2 long receptor) [5]; Fig_S11c, Log[Drug] -5, replicate values): 121.198 and 127.001 and 100.932 and 110.321 and 113.709 and 113.34 and 97.1155
- Response, Fig_S11c dose-response (DRD2 (D2 long receptor) [5]; Log[Drug] -7): 77.394 and 77.7575 and 68.5542 and 65.6395 and 57.0787 and 60.1228 and 51.2599 and 46.3298
- Response, Fig_S11c dose-response (DRD2 (D2 long receptor) [5]; Log[Drug] -7.52): 38.329 and 41.6231 and 33.61 and 32.4962 and 32.299 and 34.1126 and 16.8232 and 31.0553 and 35.575
- Response, Fig_S11c dose-response (DRD2 (D2 long receptor) [5]; Log[Drug] -8): 11.9901 and 12.2692 and 10.2755 and 10.8849 and 10.4485 and 8.443 and 10.7171 and 9.707 and 5.469
- Response, Fig_S11c dose-response (DRD2 (D2 long receptor) [5]; Log[Drug] -8.52): 3.649 and 3.804 and 4.186 and 3.535 and 4.03 and 2.927 and 1.899 and 5.413 and 2.845
- Response, Fig_S11c dose-response (DRD2 (D2 long receptor) [5]; Log[Drug] -9): 2.6531 and 2.675 and 3.049 and 2.914 and 2.704 and 2.807 and 3.034 (2×) and 2.494
- Response, Fig_S11c dose-response (DRD2 (D2 long receptor) [5]; Log[Drug] -9.52): 2.467 and 2.869 and 2.678 and 2.37 and 2.33 and 2.2184 and 1.931 and 2.13 and 2.319
- Response, Fig_S11c dose-response (DRD2 (D2 long receptor) [5]; Log[Drug] -10): 2.843 and 2.654 and 2.976 and 2.168 and 2.347 and 2.222 and 3.804 and 1.194 and 2.499
- Response, Fig_S11c dose-response (DRD2 (D2 long receptor) [5]; Log[Drug] -10.52): 2.259 and 2.282 and 2.549 and 2.128 and 2.141 (2×) and 0.6309 and 3.246 and 2.4849
- Response, Fig_S11c dose-response (DRD2 (D2 long receptor) [5]; Log[Drug] -11): 2.232 and 3.428 and 2.336 and 2.237 and 2.197 and 2.087 and 5.0906 and 1.927 and 3.601
- Response, Fig_S11c dose-response (DRD2 (D2 long receptor) [5]; Log[Drug] -11.52): 2.2032 and 3.321 and 2.444 and 2.452 and 2.181 and 2.306 and 0.82 and 1.028 and 2.688
- Response, Fig_S11c dose-response (DRD2 (D2 long receptor) [5]; Log[Drug] -12): 2.5295 and 2.339 and 2.21 and 2.47 and 2.197 and 2.157 and 4.362 and 2.319 and 1.955
- Response, Fig_S11b dose-response (DRD2 (D2 long receptor) [6]; Log[Drug] -5): 91.2746 and 93.268 and 92.0221 and 94.9982 and 95.9757 and 91.0458 and 94.8288 and 96.7238 and 94.4943
- Response, Fig_S11b dose-response (DRD2 (D2 long receptor) [6]; Log[Drug] -5.52): 84.7131 and 82.1661 and 88.7829 and 90.1533 and 94.7432 and 84.076 and 96.9467 and 103.412 and 92.2649
- Response, Fig_S11b dose-response (DRD2 (D2 long receptor) [6]; Log[Drug] -6): 91.1916 and 89.8903 and 94.4031 and 97.8031 and 85.4785 and 88.6659 and 101.461 and 101.183 and 85.6322
- Response, Fig_S11b dose-response (DRD2 (D2 long receptor) [6]; Log[Drug] -6.52): 79.2314 and 90.7486 and 80.9756 and 96.6556 and 102.308 and 66.8216 and 90.3141 and 94.5501 and 81.1733
- Response, Fig_S11b dose-response (DRD2 (D2 long receptor) [6]; Log[Drug] -7): 93.1296 and 79.0099 and 76.7951 and 89.8559 and 81.4411 and 87.5184 and 97.0582 and 96.7796 and 87.8617
- Response, Fig_S11b dose-response (DRD2 (D2 long receptor) [6]; Log[Drug] -7.52): 73.6389 and 59.4361 and 66.496 and 84.9685 and 73.1539 and 73.1114 and 79.2783 and 81.1733 and 101.35
- Response, Fig_S11b dose-response (DRD2 (D2 long receptor) [6]; Log[Drug] -8): 62.703 and 59.1593 and 45.4826 and 64.1867 and 54.9645 and 52.4996 and 72.7571 and 85.8552 and 67.9638
- Response, Fig_S11b dose-response (DRD2 (D2 long receptor) [6]; Log[Drug] -8.52): 23.5556 and 18.5998 and 3.594 and 27.9779 and 38.8575 and 46.6347 and 39.4267 and 57.0952 and 34.8006
- Response, Fig_S11b dose-response (DRD2 (D2 long receptor) [6]; Log[Drug] -9): 24.2477 and 23.1957 and 12.4536 and 22.6655 and 22.9205 and 23.0055 and 26.2172 and 30.5646 and 12.7847
- Response, Fig_S11b dose-response (DRD2 (D2 long receptor) [6]; Log[Drug] -12): -5.1267 and 0.6872 and -14.1523 and 6.559 and 2.691 and 2.479 and -11.9066 and 21.591 and -2.8216
